Measurements reported in patent US20090030024A1, “THIAZOLES AS FUNGICIDES” (priority 2005, published 2009).
Marks after values point to notes of the source that are not given here.

Test: logP determination by retention times (calibration with alkan-2-ones)
Details: not given

Row | Structure (SMILES) | chromatographic logP
1 | COCc1nc(C)c(-c2ccnc(Nc3ccc4c(c3)OCCO4)n2)s1 [Example 390, N-(2,3-dihydro-1,4-benzodioxin-6-yl)-4-[2-(methoxymethyl)-4-methyl-1,3-thiazol-5-yl]pyrimidine-2-amine] | 2.49
2 | CSc1nc(C)c(-c2ccnc(Nc3ccccc3)n2)s1 [Example 318, 4-[4-methyl-2-(methylthio)-1,3-thiazol-5-yl]-N-phenylpyrimidine-2-amine] | 3.34
3 | CCc1nc(C)c(-c2ccnc(Nc3ccc(C(=O)O)cc3)n2)s1 [Example 325, 4-{[4-(2-ethyl-4-methyl-1,3-thiazol-5-yl)pyrimidin-2-yl]amino}benzoic acid] | 2.16
4 | COCCOC(=O)Nc1ccc(Nc2nccc(-c3sc(C4CC4)nc3C)n2)cc1 [Example 71, 2-methoxyethyl-(4-{[4-(2-cyclopropyl-4-methyl-1,3-thiazol-5-yl)pyrimidin-2-yl]amino}phenyl)carbamate] | 2.51
5 | COCc1nc(C)c(-c2ccnc(Nc3ccc(OC)c(OC)c3)n2)s1 [Example 404, N-(3,4-dimethoxyphenyl)-4-[2-(methoxymethyl)-4-methyl-1,3-thiazol-5-yl]pyrimidine-2-amine] | 2.23
6 | Cc1nc(C2CCCCC2)sc1-c1ccnc(Nc2cccc(O)c2)n1 [Example 146, 3-{[4-(2-cyclohexyl-4-methyl-1,3-thiazol-5-yl)pyrimidin-2-yl]amino}phenol] | 3.33
7 | COc1cccc(Nc2nccc(-c3sc(C)nc3C)n2)c1 [Example 183, 4-(2,4-dimethyl-1,3-thiazol-5-yl)-N-(3-methoxyphenyl)pyrimidine-2-amine] | 2.64

Same assay, conditions: * HPLC reversed-phase C18, 40° C., mobile phase 0.1% aqueous formic acid and acetonitrile, linear gradient 10% to 95% acetonitrile

Row | Structure (SMILES) | logP
8 | COC(=O)Nc1ccc(Nc2nccc(-c3sc(N(C)C)nc3C(F)(F)F)n2)cc1 [Example 694, methyl-[4-({4-[2-(dimethylamine)-4-(trifluoromethyl)-1,3-thiazol-5-yl]pyrimidin-2-yl}amino)phenyl]carbamate] | 3.04*
9 | CC(=O)c1cccc(Nc2nccc(-c3sc(N(C)C)nc3C)n2)c1 [Example 685, 1-[3-({4-[2-(dimethylamine)-4-methyl-1,3-thiazol-5-yl]pyrimidin-2-yl}amino)phenyl]ethanone] | 1.89*

Same assay, conditions: HPLC, reversed-phase C 18, EEC Directive 79/831 Annex V.A8; method *: 40° C., 0.1% aqueous formic acid and acetonitrile, linear gradient 10% to 95% acetonitrile

Row | Structure (SMILES) | logP
10 | CNc1nc(C)c(-c2ccnc(Nc3ccccc3)n2)s1 [Example 315, 4-[4-methyl-2-(methylamine)-1,3-thiazol-5-yl]-N-phenylpyrimidine-2-amine] | 1.61*
11 | Cc1nc(NC(C)(C)C)sc1-c1ccnc(Nc2ccc(O)cc2)n1 [Example 180, 4-({4-[2-(tert-butylamine)-4-methyl-1,3-thiazol-5-yl]pyrimidin-2-yl}amino)phenol] | 1.67*

Same assay, conditions: logP(HCOOH), HCOOH

Row | Structure (SMILES) | chromatographic logP
12 | Cc1nc(C)c(-c2nc(Cl)ncc2Cl)s1 [2,5-Dichloro-4-(2,4-dimethyl-1,3-thiazol-5-yl)pyrimidine] | 2.47

Same assay, conditions: logP, * HPLC reversed-phase C18, 40° C., mobile phase 0.1% aqueous formic acid and acetonitrile, linear gradient 10% to 95% acetonitrile

Row | Structure (SMILES) | chromatographic logP
13 | CCc1nc(C)c(-c2ccnc(Nc3ccc(C)c(C)c3)n2)s1 [Example 718, N-(3,4-dimethylphenyl)-4-(2-ethyl-4-methyl-1,3-thiazol-5-yl)pyrimidine-2-amine] | 3.71
14 | CC(=O)c1cccc(N(C(C)=O)c2nccc(-c3sc(C4CC4)nc3C)n2)c1 [Example 665, N-(3-acetylphenyl)-N-[4-(2-cyclopropyl-4-methyl-1,3-thiazol-5-yl)pyrimidin-2-yl]acetamide] | 2.43
15 | CCc1nc(C)c(-c2ccnc(Nc3cccnc3)n2)s1 [Example 714, 4-(2-ethyl-4-methyl-1,3-thiazol-5-yl)-N-pyridin-3-ylpyrimidine-2-amine] | 1.35
16 | Cc1nc(C(F)(F)F)c(-c2ccnc(Nc3ccc(F)c(F)c3)n2)s1 [Example 705, N-(3,4-difluorophenyl)-4-[2-methyl-4-(trifluoromethyl)-1,3-thiazol-5-yl]pyrimidine-2-amine] | 3.76
17 | COCC(C)Nc1nc(C)c(-c2ccnc(Nc3ccc(NC(C)=O)cc3)n2)s1 (centres unmarked) [Example 578, N-{4-[(4-{2-[(2-methoxy-1-methylethyl)amino]-4-methyl-1,3-thiazol-5-yl}pyrimidin-2-yl)amino]phenyl}acetamide] | 1.43
18 | COCc1nc(C)c(-c2ccnc(Nc3ccc(Cl)cc3)n2)s1 [Example 465, N-(4-chlorophenyl)-4-[2-(methoxymethyl)-4-methyl-1,3-thiazol-5-yl]pyrimidine-2-amine] | 3.29
19 | COCCNc1nc(C)c(-c2ccnc(Nc3cccc(C(C)=O)c3)n2)s1 [Example 689, 1-{3-[(4-{2-[(2-methoxyethyl)amino]-4-methyl-1,3-thiazol-5-yl}pyrimidin-2-yl)amino]phenyl}ethanone] | 1.69
20 | COCc1nc(C)c(-c2ccnc(Nc3ccc(CNC(=O)OC(C)(C)C)cc3)n2)s1 [Example 643, tert-butyl-[4-({4-[2-(methoxymethyl)-4-methyl-1,3-thiazol-5-yl]pyrimidin-2-yl}amino)benzyl]carbamate] | 2.99
21 | COc1cc(Nc2nccc(-c3cnc(-c4ccccc4)s3)n2)cc(OC)c1OC [Example 786, 4-(2-phenyl-1,3-thiazol-5-yl)-N-(3,4,5-trimethoxyphenyl)pyrimidine-2-amine] | 3.37
22 | Cc1nc(C(F)(F)F)c(-c2ccnc(Nc3ccc(N(C)C)c(Cl)c3)n2)s1 [Example 700, 2-chloro-N1,N1-dimethyl-N4-{4-[2-methyl-4-(trifluoromethyl)-1,3-thiazol-5-yl]pyrimidin-2-yl}benzene-1,4-diamine] | 2.88
23 | COCCNc1nc(C)c(-c2ccnc(Nc3ccc(F)cc3)n2)s1 [Example 677, N-(4-fluorophenyl)-4-{2-[(2-methoxyethyl)amino]-4-methyl-1,3-thiazol-5-yl}pyrimidine-2-amine] | 1.9

Same assay, conditions: logP, values marked *: HPLC on reversed-phase C 18, 40° C., mobile phase 0.1% aqueous formic acid and acetonitrile, linear gradient 10% to 95% acetonitrile

Row | Structure (SMILES) | chromatographic logP
24 | Cc1nc(C(C)(C)C)sc1-c1ccnc(Nc2ccc(F)cc2)n1 [Example 883, 4-(2-tert-butyl-4-methyl-1,3-thiazol-5-yl)-N-(4-fluorophenyl)pyrimidine-2-amine] | 4.18
25 | Cc1nc(C(C)C)sc1-c1nc(Nc2ccccc2)ncc1Cl [Example 903, 5-chloro-4-(2-isopropyl-4-methyl-1,3-thiazol-5-yl)-N-phenylpyrimidine-2-amine] | 4.27
26 | COCC(C)Nc1nc(C)c(-c2ccnc(Nc3ccc(S(N)(=O)=O)cc3)n2)s1 (centres unmarked) [Example 864, 4-[(4-{2-[(2-methoxy-1-methylethyl)amino]-4-methyl-1,3-thiazol-5-yl}pyrimidin-2-yl)amino]benzenesulphonamide] | 1.49
27 | COCCCNc1nc(C)c(-c2ccnc(Nc3ccc(F)cc3)n2)s1 [Example 851, N-(4-fluorophenyl)-4-{2-[(3-methoxypropyl)amino]-4-methyl-1,3-thiazol-5-yl}pyrimidine-2-amine] | 1.92
28 | COCCCNc1nc(C)c(-c2ccnc(Nc3ccc(NC(C)=O)cc3)n2)s1 [Example 854, N-{4-[(4-{2-[(3-methoxypropyl)amino]-4-methyl-1,3-thiazol-5-yl}pyrimidin-2-yl)amino]phenyl}acetamide] | 1.4

Same assay, conditions: values marked *: HPLC on reversed-phase C 18, 40° C., mobile phase 0.1% aqueous formic acid and acetonitrile, linear gradient 10% to 95% acetonitrile

Row | Structure (SMILES) | logP
29 | Cc1nc(N(C)C)sc1-c1ccnc(Nc2ccc(F)cc2)n1 [Example 849, 4-[2-(dimethylamine)-4-methyl-1,3-thiazol-5-yl]-N-(4-fluorophenyl)pyrimidine-2-amine] | 1.99*
